Experimental data reported in patent US12116325B2, “Increased longevity of the nitrogen content of soil through improved liquid delivery formulations of nitrification inhibitors designed for urea and manure based fertilizers” (SOILGENIC TECHNOLOGIES, LLC, priority 2014, dated 2024).

Assay: Degradation study of actives in DMSO at 50° C. by LC
Format: physicochemical
Method: A degradation study was performed using 2-chloro-6-(trichloromethyl)pyridine/nBPT in DMSO.
A 2-chloro-6-(trichloromethyl)pyridine/NBPT=1/1(w/w) mixture was dissolved in DMSO. LC (liquid chromatography) was performed to analyze the content decrease versus time. All samples were sealed and protected under N2. All samples were stored 50° C.
A C18 column was used, and measured at 255 nm. Retention time: 40 min.
Temperature: 30° C. 15 μL injection. Peak area percentages were calculated to analyze the concentration and are shown in below Table 3.

Clc1cccc(C(Cl)(Cl)Cl)n1 [2-chloro-6-(trichloromethyl)pyridine]
Content remaining, LC peak area percentage (1 week): 100%
Content remaining, LC peak area percentage (2 week): 99%
Content remaining, LC peak area percentage (3 week): 99.4%
Content remaining, LC peak area percentage (4 week): 98.3%
Content remaining, LC peak area percentage (6 week): 95.3%
Content remaining, LC peak area percentage (7 week): 93.2%
Content remaining, LC peak area percentage (8 week): 92.3%
Content remaining, LC peak area percentage (9 week): 90.8%
Content remaining, LC peak area percentage (10 week): 88%
Content remaining, LC peak area percentage (11 week): 86.7%
Content remaining, LC peak area percentage (12 week): 86.4%
Content remaining, LC peak area percentage (13 week): 85%
Content remaining, LC peak area percentage (14 week): 84.33%
Content remaining, LC peak area percentage (15 week): 83.56%
Content remaining, LC peak area percentage (16 week): 81.45%
Content remaining, LC peak area percentage (17 week): 81%
Content remaining, LC peak area percentage (18 week): 80.09%

CCCCNP(N)(N)=S [n-butylthiophosphoric triamide]
Content remaining, LC peak area percentage (Week 1, 1/1 (w/w) mixture in DMSO, 50° C., sealed under N2): 100%
Content remaining, LC peak area percentage (Week 2, DMSO, 50° C.): 99.6%
Content remaining, LC peak area percentage (Week 3, DMSO, 50° C.): 98%
Content remaining, LC peak area percentage (Week 4, DMSO, 50° C.): 97.6%
Content remaining, LC peak area percentage (Week 6, DMSO, 50° C.): 96.5%
Content remaining, LC peak area percentage (Week 7, DMSO, 50° C.): 95.3%
Content remaining, LC peak area percentage (Week 8, DMSO, 50° C.): 94.7%
Content remaining, LC peak area percentage (Week 9, DMSO, 50° C.): 93%
Content remaining, LC peak area percentage (Week 10, DMSO, 50° C.): 92.2%
Content remaining, LC peak area percentage (Week 11, DMSO, 50° C.): 92.1%
Content remaining, LC peak area percentage (Week 12, DMSO, 50° C.): 91.7%
Content remaining, LC peak area percentage (Week 13, DMSO, 50° C.): 91%
Content remaining, LC peak area percentage (Week 14, DMSO, 50° C.): 90.88%
Content remaining, LC peak area percentage (Week 15, DMSO, 50° C.): 90.01%
Content remaining, LC peak area percentage (Week 16, DMSO, 50° C.): 99.55%
Content remaining, LC peak area percentage (Week 17, DMSO, 50° C.): 89.06%
Content remaining, LC peak area percentage (Week 18, DMSO, 50° C.): 88.6%
